In one data set the test system is Leishmaniasis. The following applies: cited from earlier work.
The test system of the next data set is WM35 cells (Melanoma). Briefly: Growth inhibition of human tumor cell lines. The following applies: SS 12.5 μg/ml, IFNα 1,000 u/ml, alone or combined. The class given is cell-based.

As for `O.O.O.O.O.O.O.O.O.O=C([O-])[C@@H]1[O][Sb]2([O-])([O][Sb]34([OH])[O][C@H]([C@H](O)CO)[C@H]([O]3)[C@H](C(=O)[O-])[O]4)[O][C@H]([C@H](O)CO)[C@@H]1[O]2.[Na+].[Na+].[Na+]` [sodium stibogluconate], the “efficacy in Leishmaniasis” value in the data set with Leishmaniasis (20 mg Sb/kg body weight per day i.m. daily for 10-14 days) is reported as 70-100%. Besides, in the data set on Leishmaniasis (human, in vivo), the known toxicity profile entry is “modest cardiac toxicity and leukopenia”; the “single dose used without serious toxicity” value is listed as “up to 143 mg Sb/kg”.
IFNα: the “% of growth inhibition by day 6 (±s.d.)” value in the data set on WM35 cells (Melanoma) is given as 19 (3) %.

These data come from patent US7744867B2, “PTPase inhibitors and method of using same” (The Cleveland Clinic Foundation, priority 2001, dated 2010).
